{
  "source": "patent US20190021992A1",
  "about": "“NEW IMPROVED COMPOSITION COMPRISING AT LEAST ONE CADOTRIL” (Johnson & Johnson Consumer Inc., priority 2016, published 2019)",
  "assay": "Oral administration pharmacokinetic studies in rats (thiorphan plasma concentration, HPLC)",
  "format": "in vivo, Sprague Dawley rats",
  "method": "Formulations were administered to rats at doses expected to be pharmacologically effective for estimation of the bioavailability. Blood was drawn at specified time points and plasma concentration of thiorphan was assessed.\nAnimals: Sprague Dawley rats, approximate weight 250 g. Animal preparation: Deprived of food (but not of water) during 18 h preceding dosing. Mode of administration: thiorphan (i.v.) and racecadotril (p.o.) by oral gavage. Blood sampling volume: 300 μl/per sample.\nBlood was drawn at specified time points. Plasma was immediately frozen and kept at −80° C. for assessment of thiorphan concentration by HPLC.\nFormulation nr. 8 (example 2) was administered to rats p.o. at dose of 20 mg/kg. One group of rats was given thiorphan i.v. at a dose of 13.4 mg/kg as a reference. […]",
  "key": {"[1]": {"details": "individual rats, thiorphan i.v. 13.4 mg/kg, 13.4 mg/kg"}},
  "note": "Values joined by “and” are separate entries in the source; they are usually repeats but may differ in a detail not shown here. Identical values can stand only once.",
  "data": [
    {"smiles": "O=C(O)CNC(=O)C(CS)Cc1ccccc1", "note": "(centres unmarked) [Thiorphan, thiorphan]", "values": [
      {"measurement": "AUC(0-inf)", "setting": "Sprague Dawley, rat, plasma, iv, 13.4 mg/kg, average of 3 rats, thiorphan i.v. 13.4 mg/kg, read-out: AUCinf (thiorphan), Avg", "value": 1710, "unit": "ng·h/mL"},
      {"measurement": "Cmax", "setting": "Sprague Dawley, rat, plasma, iv, 13.4 mg/kg, individual rats, thiorphan i.v. 13.4 mg/kg", "value": 15900, "unit": "ng/mL"},
      {"measurement": "Tmax", "setting": "Sprague Dawley, rat, plasma, iv, individual rats, thiorphan i.v. 13.4 mg/kg", "value": 1.98, "unit": "min"},
      {"measurement": "AUCinf (thiorphan)", "setting": "[1]", "value": "2403 ng·h/mL and 1857 ng·h/mL and 871 ng·h/mL"},
      {"measurement": "AUCt (thiorphan)", "setting": "[1]", "value": "2392 ng·h/mL and 1843 ng·h/mL and 857 ng·h/mL"},
      {"measurement": "Cmax (thiorphan)", "setting": "[1]", "value": "17649 ng/mL and 21914 ng/mL"},
      {"measurement": "T_half (thiorphan)", "setting": "[1]", "value": "1.31 h and 0.57 h and 1.81 h"},
      {"measurement": "Rel BA (%)", "setting": "thiorphan i.v. 13.4 mg/kg (reference)", "value": 100, "unit": "%"}
    ]}
  ]
}
